Counter-ions that a name gives are not always drawn. Like-named read-outs stand apart in the source and are kept apart here.
What was measured:
[1] = target: HIV-1 protease (Human immunodeficiency virus type 1 group M subtype B, UniProt P04585); assay: Fluorescence HIV-1 Protease Inhibitor Assay (Pandex); format: biochemical; set-up: made in house; host or cells: E. coli K12 L507/pHP10D (NRRL B-18560)
Procedure: A. Preparation of Protease and Gag Fractions
Lyophils of E. coli K12 L507/pHP10D were obtained from the Northern Regional Research Laboratory, Peoria, Ill. 61604, under the accession number NRRL B-18560 (deposited Nov. 14, 1989). The lyophils were decanted into tubes containing 10 ml LB medium (10 g Bacto-tryptone, 5 g Bacto-yeast extract, and 10 g aqueous sodium chloride per liter; the pH was adjusted to 7.5 and incubated at 32° C. overnight).
A small portion of the overnight culture was placed on LB-agar (LB medium with 15 g/L Bacto-agar) plates containing 12.5 micrograms/ml tetracycline in a manner so as to obtain a single colony isolate of E. coli K12 L507/pHP10D. The single colony obtained was inoculated into 10 ml of LB medium containing 12.5 micrograms/ml tetracycline and incubated overnight at 32° C. with vigorous shaking. The 10 ml overnight culture was inoculated into LB medium containing 12.5 micrograms/ml tetracycline and incubated at 32° C. with vigorous shaking until the culture reached mid-log phase. […]
3. Preparation of Protease Fraction
A culture of E. coli K12 L507/pHP10D was grown to mid-log phase at 32° C. in LB media containing 12.5 micrograms/ml tetracycline. The cultivation temperature was quickly elevated to 40° C. to induce gene expression, and the cells were allowed to grow for 2.5 hours at this temperature before the culture was quickly chilled on ice. The cells were centrifuged and the cell pellet was resuspended in 20 ml of 50 mmol MES buffer (pH 6.0) containing 1 mmol EDTA, 1 mmol DTT, 1 mmol PMSF and 10% glycerol (“Buffer A”). Cells were lysed by sonication using a Fischer Model 300 Dismembrator and a microtip probe. Following centrifugation at 27,000×g, the supernatant was diluted to a total volume of 60 ml with Buffer A and loaded onto a 2.0×19 cm QAE-Sepharose column (1 ml/min, 4° C.), that had been equilibrated in Buffer A. The column was washed isocratically for 180 min and then eluted with a gradient eluent of […] aqueous sodium chloride in Buffer A over 120 min. Enzymatic activity was measured by HPLC using the synthetic peptide Ser-Gln-Asn-Tyr-Pro-Ile-Val as described in Margolin et al., Biochem. Biophys. Res. Commun., 167, 554-560 (1990); the production of the p1 peptide (Ser-Gln-Asn-Tyr) was measured.
The active fractions were combined, adjusted to […] 1.2M in ammonium sulfate, and applied to a 2.0×18 cm hexyl agarose column that had been equilibrated in Buffer A containing 1.2M ammonium sulfate. The sample was loaded at a flow rate of 1 ml/min at 4° C., washed with the equilibration buffer for 240 min (1 ml/min) and then eluted using a reverse linear gradient of 1.2-0M ammonium sulfate in Buffer A for 120 min at the same flow rate. The column was then washed isocratically in Buffer A for 120 min.
The active fractions were combined, concentrated to 10 ml using an Amicon stirred cell with a YM-10 membrane and then applied to a MonoS cation exchange column (1.0×10 cm) that had been equilibrated in Buffer A. The sample was loaded at a flow rate of 1 ml/min at 25° C. After washing isocratically for 30 min, the protease was eluted using a linear gradient of 0-0.45M aqueous sodium chloride in Buffer A over 40 min. The column was washed isocratically in Buffer A containing 0.45M aqueous sodium chloride for 30 minutes.
The active fractions were combined and concentrated to 200 microliters using an Amicon stirred cell and a YM-10 membrane and then the protease was applied to a Superose 6 size exclusion column equilibrated in Buffer A containing 0.1M aqueous sodium chloride.

[2] = system: Viral SN123 infected CEM cells
Procedure: Purpose: To determine IC50 CC50 for compounds:
Media A [1% DMSO] (100 microliters DMSO+9.9 ml media A)
CEM cells @ [1×10^4] cells/ml (4 plate=40 ml) (6 plate=60 ml)
(need 70 microliters of each)
A-D at [10 mM] in 100% DMSO
4 or 6 u-bottom 96-well plates
4 flat bottom 96-well plates for dilutions
8-10 boxes of sterile costar tips
Approximately 10 reagent trays
1000 cells/well=1×10^4 cells/ml=1000 cells/100 microliters 200 microliters=total volume in a well
Cell Preparation and Plating of Cells, Media A and Media A (1% DMSO)
a. Number a 96-well tissue culture plate for each compound tested, one for a control plate, and one for the control compound.
b. Count cells on hemacytometer and resuspend them in 40 ml or 80 ml of Media A at a concentration of [1×10^4]0 cells/ml.
Counting Cells on a Hemacytomer:
Label two 1.8 ml nuc tubes 1 and 2.
Put 0.5 ml of well mixed CEM cells (in growth phase) in tube 1.
Put 50 micoliters PBS and 40 microliters of trypan blue into tube 2.
Mix up the cells in tube 1 then remove 10 microliters of cells and put them into tube 2.
Mix well in tube 2, then remove 10 microliters of the stained cells and put them on the hemacytometer.
Count the number of cells in the center square of the hemacytometer with the microscope set on 10×.
The concentration of the stock CEM's in cells/ml is as follows:
Cells counted×1×10^5=Concentration of CEM's in [cells/ml].
c. Add 200 microliters Media A to: A1 of places 2-6. These are Blanks. A4-H4 of plate 1. These are Blanks.
d. Add 5 microlicers Media A to all wells of Rows A-D of plates 2-6 except A1 (the top half of each plate).
e. Add 50 microliters of Media A to wells A1-D3 of Plate 1 (the top half of the plate).
f. Add 50 microliters Media A[l% DMSO] to all wells of Columns 1-3 of plate 1.
This puts 1000 cells/well.
h. Put plates in an incubator while doing drug dilutions.
Preparation Control and Test Drugs
(1) Put 60 microliters of DMSO into all wells of Columns 2-12, Rows A-E.
(3) Put 70 microliters of A [10 mM] at 100% DMSO into well B1.
(4) Put 70 microliters of B [10 mM] at 100% DMSO into well C1.
(5) Put 70 microliters of C [10 mM] at 100% DMSO into well D1.
(6) Put 70 microliters of D [10 mM] at 100% DMSO into well E1.
Change tips before each dilution.
(1) In rows A-E of another plate make a row for the first 1:10 dilution to correspond to each compound's 100% DMSO row.
A into Row B for the first 1:10 dilution.
B into Row C for the first 1:10 dilution.
C into Row D for the first 1:10 dilution.
D into Row E for the first 1:10 dilution.
(2) Put 180 microliters of media A into all wells of rows A-E corresponding to the 100% DMSO rows. 2.5 ml needed per row.
(3) Remove 20 microliters from all wells of each row of the 100% DMSO rows and transfer it to the corresponding 1:10 row.
(1) Make a plate for every 3 compounds to be tested.
Use 20 ml of media A per plate.
(3) Transfer 25 microliters of each compound from the row in the 1:10 dilution to the corresponding two rows on the 1:100 dilution plate changing tips before each transfer.
Addition of Viral SN123 to Plates
a. Thaw Sn123 in 37° C. water bath for approximately 10 minutes.
b. Dilute Sn123 1:16 by adding 1 ml of Sn123 to 15 ml of media A.
c. Add 50 microliters of Sn123 [1:16] to wells E1-H12 of plates 2-6 and to wells E1-H3 of plate 1.
Addition of Drugs to Plates
a. Add 50 microliters of the control and test drugs from the rows in the 1:100 dilution plates to the appropriate rows in the final plates (changing tips before each transfer). One row in the 1:100 plate will do 4 rows in the final plate. Leave A1 blank.
b. Incubate all plates 7 days at 37° C. 5% CO2.
c. Do Xtt protocol on day 7 as follows:
d. Preparation of Xtt/PMS Solution: (4 plate=20 ml) (6 plate=30 ml)
100 microliters [100 mM] PMS+4.9 ml PBS=PMS at [2 mM]
(2) Heat 500 ml of H2O in microwave for 5 minutes on high.
(3) Put 20 or 30 ml of phenol red RPMI in a 50 ml centrifuge tube.
(4) Put the RPMI in the beaker of hot water.
(5) Add 20 or 30 mg of XTT to the warmed up RPMI.

[3] = value as run, 35B value of the same run in footnote or parentheses, read-out: Pandex IC50 ng/ml (converted)
[4] = Human immunodeficiency virus 1, CCRF-CEM, read-out: Whole cell IC50 nM, CEM cells, values in parentheses are 35B in same assay
[5] = Human immunodeficiency virus 1, CCRF-CEM, read-out: Whole cell IC90 nM, CEM cells, values in parentheses are 35B in same assay
[6] = Human immunodeficiency virus 1, CCRF-CEM, read-out: Whole cell IC50 nM
[7] = Human immunodeficiency virus 1, CCRF-CEM, read-out: Whole cell IC90 nM
[8] = normalized to positive control (=1.0), * = a calculated average, read-out: Fluorescence Assay IC50 in ng/mL (converted)

Which “Pandex % at 22” value ([1]; at 22 (ng/ml), wrapped cell) does the source give for `Cc1c(OP(=O)(O)O)cccc1C(=O)N[C@@H](CSc1ccccc1)[C@H](O)CN1C[C@H]2CCCC[C@H]2C[C@H]1C(=O)NC(C)(C)C.Cl` (relative stereo) [Example 80, [3S-(3R*, 4aR*, 8aR*, 2′S*, 3′S*)]-2-[2′-Hydroxy-3′-phenylthiomethyl-4′-aza-5′-oxo-5′-(2″-methyl-3″-Hydroxyphenyl)pentyl]-decahydroisoquinoline-3-N-t-butyl carboxamide 3″-Dihydrogen Phosphate Hydrochloride] here?
Its value is 0.3% at.

And the IC50 [1, 3]?
Its IC50 is 5.85 nM.

And the IC50 [2, 4]?
The IC50 was 8.99 nM.

What about the IC90 [2, 5] of the same compound?
The IC90 was 27.9 nM.

For `Cc1c(O)cccc1C(=O)N[C@@H](CSc1ccccc1)[C@H](O)CN1C[C@H]2CCS[C@H]2C[C@H]1C(=O)NC(C)(C)C` (relative stereo) [Example 74 I, [6S-(6R*, 3aS*, 7aR*, 2′S*, 3′S*)]-2-[2′-Hydroxy-3′-phenylthiomethyl-4′-aza-5′-oxo-5′-(2″-methyl-3″-hydroxyphenyl)pentyl]-octahydrothieno[3,2-c]pyridine-6-N-t-butyl carboxamide methanesulfonic acid salt], which IC50 ([1]; Table 2, read-out: IC50 (Pandex)) is on record?
Its IC50 is 0.3 nM.

And the IC50 [2, 6]?
The IC50 was 4.06 nM.

And the IC90 [2, 7]?
Its IC90 is 9.74 nM.

Which results are given for `Cc1cnccc1C(=O)NC(CSc1ccccc1)C(O)CN1CC2CCCCC2CC1C(=O)NC(C)(C)C` (stereo not drawn) [Example 30, [3S-(3R*,4aR*,8aR*,2′S*,3′S*)]-2-[2′-Hydroxy-3′-phenylthiomethyl-4′-aza-5′-oxo-5′-(3″-methyl-pyrid-4″-yl)phentyl] decahydroisoquinoline-3-N-t-butylcarboxamide]?
IC50 [1, 8]: 7.6 nM; IC50 [1, 3]: 9.05 nM; IC50 [2, 4]: 367 nM; IC90 [2, 5]: 736 nM

`Cc1c(O)cccc1C(=O)N[C@@H](CSc1ccc(F)cc1)[C@H](O)CN1C[C@H]2CCCC[C@H]2C[C@H]1C(=O)NC(C)(C)C` (relative stereo) [Example 92, [3S-(3R*, 4aR*, 8aR*, 2′S*, 3′R*)]-2-(2′-Hydroxy-3′-(4′″-fluoro)phenylthiomethyl-4′-aza-5′-oxo-5′-(2″-methyl-3″-hydroxyphenyl)pentyl]-decahydroisoquinoline-3-N-t-butyl carboxamide] was tested. Which IC50 [1, 3] did it give?
The IC50 was under 0.273 nM.

What about the IC50 [2, 6] of the same compound?
Its IC50 is 2.01 nM.

And the IC90 [2, 7]?
The IC90 was 57 nM.

How did the “Fluorescence Assay IC50” value ([1]; normalized to positive control (=1.0), * = a calculated average) turn out when “[2S-(2R*,2′S*,3′S*)]-1-[2′-Hydroxy-3′-phenylthiomethyl-4′-aza-5′-oxo-5′-(quinolin-5″-yl)pentyl]-4-(pyrid-3′″-ylmethyl)piperazine-2N-t-butylcarboxamide [Example 34]” was run?
Its value is 4.5 ng/mL.

And the “Pandex IC50 ng/ml” value ([1]; value as run, 35B value of the same run in footnote or parentheses)?
Its value is 5.4^b ng/ml.

What about the IC50 ([2]; read-out: Whole cell IC50 nM, CEM cells, values in parentheses are 35B in same assay) of the same compound?
Its IC50 is 149 nM.

What about the IC90 ([2]; read-out: Whole cell IC90 nM, CEM cells, values in parentheses are 35B in same assay) of the same compound?
The IC90 was 564 nM.

Which results are given for `CC(C)(C)NC(=O)C1CC2CCCCC2CN1CC(O)C(CSc1ccccc1)NC(=O)c1cccc2c1CCCN2` (stereo not drawn) [Example 32, [3S-(3R*,4aR*,8aR*,2′S*,3′S*)]-2-[2′-Hydroxy-3′-phenylthiomethyl-4′-aza-5′-oxo-5′-(1″,2″,3″,4″-tetrahydroquinolin-5″-yl)pentyl] decahydroisoquinoline-3-N-t-butylcarboxamide]?
IC50 [1, 8]: 0.877 nM; IC50 [1, 3]: 2.53 nM; IC50 [2, 4]: 539 nM; IC90 [2, 5]: 2310 nM

With `CC(C)(C)NC(=O)[C@@H]1CN(Cc2cccnc2)CCN1C[C@@H](O)[C@H](CSc1ccccc1)NC(=O)c1cccc2c1CCCN2` [Example 33, [3S-(2R*,2′S*,3′S*)]-1-[2′-Hydroxy-3′-phenylthiomethyl-4′-aza-5′-oxo-5′-(1″,2″,3″,4″-tetrahydroquinolin-5″-yl)pentyl]-4-(pyrid-3′″-ylmethyl)piperazine-2N-t-butylcarboxamide] as the compound, how does the IC50 [1, 8] read?
Its IC50 is 2.69 nM.

And the IC50 [1, 3]?
The IC50 was 3.17 nM.

And the IC50 [2, 4]?
Its IC50 is 39.5 nM.

And the IC90 [2, 5]?
Its IC90 is 200 nM.

With `Cc1ccccc1C(=O)NC(CSc1ccccc1)C(O)CN1CC2CCCCC2CC1C(=O)NC(C)(C)C` (stereo not drawn) [Example 29, [3S-(3R*,4aR*,8aR*,2′S*,3′S*)]-2-[2′-Hydroxy-3′-phenylthiomethyl-4′-aza-5′-oxo-5′-(2″-methyl-phenyl)pentyl] decahydroisoquinoline-3-N-t-butylcarboxamide] as the compound, how does the IC50 [1, 8] read?
Its IC50 is 3.08 nM.

And the IC50 [1, 3]?
Its IC50 is 3.62 nM.

And the IC50 [2, 4]?
Its IC50 is 1590 nM.

And the IC90 [2, 5]?
The IC90 was 4460 nM.

For `Cc1c(F)cccc1C(=O)NC(Cc1ccccc1)C(O)CN1CC2CCCCC2CC1C(=O)NC(C)(C)C` (stereo not drawn) [Example 7, [3S-(3R*,4aR*,8aR*,2′S*,3′R*)]-2-[2′-Hydroxy-3′-phenylmethyl-4′-aza-5′-oxo-5′-(2″-methyl-3″-fluorophenyl)pentyl] decahydroisoquinoline-3-N-t-butylcarboxamide], which IC50 [1, 8] is on record?
The IC50 was 474 nM.

What about the IC50 [2, 4] of the same compound?
Its IC50 is 323 nM.

Which results are given for `Cc1c(O)cccc1C(=O)N[C@@H](CSc1ccccc1)[C@H](O)CN1CCN(Cc2cccnc2)C[C@H]1C(=O)NC(C)(C)C` [Example 19]?
IC50 [1, 8]: 0.528 nM; IC50 [1, 3]: 0.693 nM; IC50 [2, 4]: 16.1 nM; IC90 [2, 5]: 42 nM
